Measurements from patent US11254686B1 (Corvus Pharmaceuticals, Inc., priority 2017, dated 2022).

Columns and labels:
adenosine A2B receptor = adenosine A2B receptor (Homo sapiens (Human), UniProt P29275); assay: Adenosine receptor activity assay (Table 1), A2B activity; format: biochemical; details: for Ratio: A2A activity to A2B activity (A2A/A2B); for IC50: read-out: Ave A2B cAMP IC50
adenosine A2A receptor = adenosine A2A receptor (Homo sapiens (Human), UniProt P29274); assay: Adenosine receptor activity assay (Table 1), A2A activity; format: biochemical; details: read-out: Ave A2A cAMP IC50
adenosine A1 receptor [1] = target: T1, adenosine A1 receptor (Homo sapiens (Human), UniProt P30542); assay: A1 cAMP IC50 assay (Table 1); format: biochemical
adenosine A3 receptor [2] = target: T2, adenosine A3 receptor (Homo sapiens (Human), UniProt P0DMS8); assay: A3 cAMP IC50 assay (Table 1); format: biochemical
adenosine A1 receptor [3] = target: T1, adenosine A1 receptor; assay: Adenosine receptor activity assay (Table 1), A1 cAMP; format: cell-based
adenosine A3 receptor [4] = target: T2, adenosine A3 receptor; assay: Adenosine receptor activity assay (Table 1), A3 cAMP; format: cell-based

Sequence of adenosine A2B receptor (P29275 whole entry): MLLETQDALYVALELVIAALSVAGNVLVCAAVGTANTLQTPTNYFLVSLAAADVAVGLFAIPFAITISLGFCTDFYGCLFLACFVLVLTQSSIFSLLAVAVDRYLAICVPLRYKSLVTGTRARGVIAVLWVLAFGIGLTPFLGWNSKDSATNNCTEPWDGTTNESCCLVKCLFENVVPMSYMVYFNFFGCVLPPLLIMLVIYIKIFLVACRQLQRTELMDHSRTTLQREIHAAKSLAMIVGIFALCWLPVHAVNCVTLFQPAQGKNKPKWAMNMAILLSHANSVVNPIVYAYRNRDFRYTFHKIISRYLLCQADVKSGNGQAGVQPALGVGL
T2 sequence (P0DMS8 whole entry): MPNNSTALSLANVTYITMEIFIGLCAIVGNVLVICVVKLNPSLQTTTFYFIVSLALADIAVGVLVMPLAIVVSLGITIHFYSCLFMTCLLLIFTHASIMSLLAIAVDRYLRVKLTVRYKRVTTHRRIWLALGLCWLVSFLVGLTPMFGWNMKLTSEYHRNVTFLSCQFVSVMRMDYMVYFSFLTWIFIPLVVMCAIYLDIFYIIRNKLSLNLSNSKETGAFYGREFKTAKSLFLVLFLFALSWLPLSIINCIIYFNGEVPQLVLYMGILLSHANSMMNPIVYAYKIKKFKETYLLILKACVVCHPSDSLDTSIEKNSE
Sequence of adenosine A2A receptor (P29274 whole entry): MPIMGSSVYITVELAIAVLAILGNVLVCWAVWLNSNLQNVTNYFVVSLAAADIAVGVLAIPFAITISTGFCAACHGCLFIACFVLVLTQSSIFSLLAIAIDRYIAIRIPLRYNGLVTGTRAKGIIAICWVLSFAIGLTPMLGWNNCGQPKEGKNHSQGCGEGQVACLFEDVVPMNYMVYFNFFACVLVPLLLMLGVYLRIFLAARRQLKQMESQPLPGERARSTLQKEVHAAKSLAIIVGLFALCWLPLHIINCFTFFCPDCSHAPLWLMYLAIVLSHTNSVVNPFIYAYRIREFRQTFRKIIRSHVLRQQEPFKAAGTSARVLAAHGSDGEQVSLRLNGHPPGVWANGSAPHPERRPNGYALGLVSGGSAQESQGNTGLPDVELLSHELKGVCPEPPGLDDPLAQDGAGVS
T1 sequence (P30542 whole entry): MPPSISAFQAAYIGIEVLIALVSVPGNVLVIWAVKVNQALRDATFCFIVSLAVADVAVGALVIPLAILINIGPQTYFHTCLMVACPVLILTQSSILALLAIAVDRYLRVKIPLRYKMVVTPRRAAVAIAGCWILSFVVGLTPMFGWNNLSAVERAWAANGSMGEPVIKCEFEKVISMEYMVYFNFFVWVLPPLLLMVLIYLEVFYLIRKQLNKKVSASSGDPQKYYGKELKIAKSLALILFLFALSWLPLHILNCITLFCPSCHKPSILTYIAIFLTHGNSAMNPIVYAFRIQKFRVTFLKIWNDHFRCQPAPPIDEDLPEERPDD

Row | Ratio (adenosine A2B receptor) | IC50 (adenosine A2B receptor) | IC50 (adenosine A2A receptor) | IC50 (adenosine A1 receptor [1]) | IC50 (adenosine A3 receptor [2]) | IC50 (adenosine A1 receptor [3]) | IC50 (adenosine A3 receptor [4]) | Compound
1 | 3.93 | 10 to 50 nM | 100 to 500 nM | > 500 nM | > 500 nM | – | – | C[C@H](Nc1nc(C(=O)N2CCC(F)(F)C2)c2sccc2n1)c1cccnc1 [Example Z13, (S)-(3,3-Difluoropyrrolidin-1-yl)(2-((1-(pyridin-3-yl)ethyl)amino)thieno[3,2-d]pyrimidin-4-yl)methanone]
2 | 0.20 | 100 to 500 nM | 10 to 50 nM | 100 to 500 nM | 50 to 100 nM | – | – | C[C@H](Nc1nc(C(=O)NCc2ccccc2)c2sccc2n1)c1cccnc1 [Example Z42, (S)—N-Benzyl-2-((1-(pyridin-3-yl)ethyl)amino)thieno[3,2-d]pyrimidine-4-carboxamide]
3 | 3.11 | 10 to 50 nM | 50 to 100 nM | > 500 nM | 50 to 100 nM | – | – | COc1cccc(CNC(=O)c2nc(N[C@@H](C)c3cccnc3)nc3ccsc23)n1 [Example Z73, (S)—N-((6-Methoxypyridin-2-yl)methyl)-2-((1-(pyridin-3-yl)ethyl)amino)thieno[3,2-d]pyrimidine-4-carboxamide]
4 | 18.10 | 10 to 50 nM | > 500 nM | > 500 nM | > 500 nM | – | – | O=C(c1nc(NCc2cccc(F)c2)nc2ccsc12)N1CCCC1 [Example Z84, (2-((3-Fluorobenzyl)amino)thieno[3,2-d]pyrimidin-4-yl)(pyrrolidin-1-yl)methanone]
5 | 0.89 | 10 to 50 nM | 10 to 50 nM | > 500 nM | 50 to 100 nM | – | – | C[C@H](Nc1nc(C(=O)NCc2ccccn2)c2sccc2n1)c1cccnc1 [Example Z89, (S)—N-(Pyridin-2-ylmethyl)-2-((1-(pyridin-3-yl)ethyl)amino)thieno[3,2-d]pyrimidine-4-carboxamide]
6 | 30.12 | < 10 nM | 100 to 500 nM | – | – | > 500 nM | > 500 nM | COC[C@@H](Nc1nc(C(=O)N2CCC2)c2sccc2n1)c1cccnc1 [Example Z341, (S)-Azetidin-1-yl(2-((2-methoxy-1-(pyridin-3-yl)ethyl)amino)thieno[3,2-d]pyrimidin-4-yl)methanone]
7 | 448.66 | < 10 nM | > 500 nM | – | – | > 500 nM | > 500 nM | C[C@H](Nc1nc(C(=O)N2CC[C@H](O)C2)c2sc(C(F)(F)F)cc2n1)c1cncc(F)c1 [Example Z346, (2-(((S)-1-(5-Fluoropyridin-3-yl)ethyl)amino)-6-(trifluoromethyl)thieno[3,2-d]pyrimidin-4-yl)((S)-3-hydroxypyrrolidin-1-yl)methanone]
8 | 98.22 | 10 to 50 nM | > 500 nM | – | – | > 500 nM | 50 to 100 nM | C[C@H](O)CNC(=O)c1nc(N[C@@H](C)c2cccnc2)nc2cc(C(F)(F)F)sc12 [Example Z347, N—((S)-2-Hydroxypropyl)-2-(((S)-1-(pyridin-3-yl)ethyl)amino)-6-(trifluoromethyl)thieno[3,2-d]pyrimidine-4-carboxamide]
9 | 92.29 | 10 to 50 nM | > 500 nM | – | – | > 500 nM | 50 to 100 nM | C[C@H](Nc1nc(C(=O)NC[C@@H](C)O)c2sc(C(F)(F)F)cc2n1)c1cccnc1 [Example Z348, N—((R)-2-Hydroxypropyl)-2-(((S)-1-(pyridin-3-yl)ethyl)amino)-6-(trifluoromethyl)thieno[3,2-d]pyrimidine-4-carboxamide]
10 | 9.52 | < 10 nM | 10 to 50 nM | – | – | 50 to 100 nM | 50 to 100 nM | Cc1cc2nc(N[C@@H](C)c3ccccn3)nc(C(=O)NC3CCC3)c2s1 [Example Z352, (S)—N-Cyclobutyl-6-methyl-2-((1-(pyridin-2-yl)ethyl)amino)thieno[3,2-d]pyrimidine-4-carboxamide]
11 | 53.12 | < 10 nM | 100 to 500 nM | – | – | 50 to 100 nM | 50 to 100 nM | Cc1cc2nc(N[C@@H](C)c3ccccn3)nc(C(=O)NCCO)c2s1 [Example Z353, (S)—N-(2-Hydroxyethyl)-6-methyl-2-((1-(pyridin-2-yl)ethyl)amino)thieno[3,2-d]pyrimidine-4-carboxamide]
12 | 74.02 | < 10 nM | 100 to 500 nM | – | – | 50 to 100 nM | 50 to 100 nM | Cc1cc2nc(N[C@@H](C)c3cccnc3)nc(C(=O)NCCO)c2s1 [Example Z368, (S)—N-(2-Hydroxyethyl)-6-methyl-2-((1-(pyridin-3-yl)ethyl)amino)thieno[3,2-d]pyrimidine-4-carboxamide]
13 | 75.08 | < 10 nM | 100 to 500 nM | – | – | 50 to 100 nM | 10 to 50 nM | Cc1cc2nc(N[C@@H](C)c3cncc(F)c3)nc(C(=O)NCCc3ccc(O)cc3)c2s1 [Example Z373, (S)-2-((1-(5-Fluoropyridin-3-yl)ethyl)amino)-N-(4-hydroxyphenethyl)-6-methylthieno[3,2-d]pyrimidine-4-carboxamide]
14 | 19.21 | < 10 nM | 100 to 500 nM | – | – | 50 to 100 nM | 10 to 50 nM | COc1cccc(CNC(=O)c2nc(N[C@@H](C)c3cncc(F)c3)nc3cc(C)sc23)n1 [Example Z374, (S)-2-((1-(5-Fluoropyridin-3-yl)ethyl)amino)-N-((6-methoxypyridin-2-yl)methyl)-6-methylthieno[3,2-d]pyrimidine-4-carboxamide]
15 | 32.01 | < 10 nM | 100 to 500 nM | – | – | 50 to 100 nM | 50 to 100 nM | Cc1cc2nc(N[C@@H](C)c3cncc(F)c3)nc(C(=O)NCC3CCOCC3)c2s1 [Example Z376, (S)-2-((1-(5-Fluoropyridin-3-yl)ethyl)amino)-6-methyl-N-((tetrahydro-2H-pyran-4-yl)methyl)thieno[3,2-d]pyrimidine-4-carboxamide]
16 | 18.44 | 10 to 50 nM | > 500 nM | – | – | > 500 nM | > 500 nM | C[C@H](Nc1nc(C(=O)NCCc2ccncc2)c2sccc2n1)c1cncc(F)c1 [Example Z382, (S)-2-((1-(5-Fluoropyridin-3-yl)ethyl)amino)-N-(2-(pyridin-4-yl)ethyl)thieno[3,2-d]pyrimidine-4-carboxamide]
17 | 55.83 | 10 to 50 nM | > 500 nM | – | – | > 500 nM | 10 to 50 nM | CC(=O)N[C@H]1CCN(C(=O)c2nc(N[C@@H](C)c3cncc(F)c3)nc3cc(C)sc23)C1 [Example Z383, N—((S)-1-(2-(((S)-1-(5-Fluoropyridin-3-yl)ethyl)amino)-6-methylthieno[3,2-d]pyrimidine-4-carbonyl)pyrrolidin-3-yl)acetamide]
18 | 13.78 | 10 to 50 nM | 100 to 500 nM | – | – | 50 to 100 nM | > 500 nM | C[C@H](Nc1nc(C(=O)NCCc2ccc(CO)cc2)c2sccc2n1)c1cncc(F)c1 [Example Z384, (S)-2-((1-(5-Fluoropyridin-3-yl)ethyl)amino)-N-(4-(hydroxymethyl)phenethyl)thieno[3,2-d]pyrimidine-4-carboxamide]
19 | 100.94 | 10 to 50 nM | > 500 nM | – | – | > 500 nM | > 500 nM | C[C@H](Nc1nc(C(=O)NCCC2CCNC2)c2sccc2n1)c1cncc(F)c1 (stereo partly drawn) [Example Z386, 2-(((S)-1-(5-Fluoropyridin-3-yl)ethyl)amino)-N-(2-(pyrrolidin-3-yl)ethyl)thieno[3,2-d]pyrimidine-4-carboxamide]
20 | 50.96 | < 10 nM | > 500 nM | – | – | 50 to 100 nM | 50 to 100 nM | Cc1cc2nc(N[C@@H](C)c3cncc(F)c3)nc(C(=O)NC[C@@H]3CCOC3)c2s1 [Example Z389, 2-(((S)-1-(5-Fluoropyridin-3-yl)ethyl)amino)-6-methyl-N—(((S)-tetrahydrofuran-3-yl)methyl)thieno[3,2-d]pyrimidine-4-carboxamide]
21 | 68.99 | < 10 nM | 100 to 500 nM | – | – | 50 to 100 nM | 50 to 100 nM | Cc1cc2nc(N[C@@H](C)c3cncc(F)c3)nc(C(=O)NC[C@H]3CCOC3)c2s1 [Example Z390, 2-(((S)-1-(5-fluoropyridin-3-yl)ethyl)amino)-6-methyl-N—(((R)-tetrahydrofuran-3-yl)methyl)thieno[3,2-d]pyrimidine-4-carboxamide]
22 | 248.84 | < 10 nM | > 500 nM | – | – | 50 to 100 nM | 50 to 100 nM | C[C@H](O)CNC(=O)c1nc(N[C@@H](C)c2cncc(F)c2)nc2cc(C(F)(F)F)sc12 [Example Z392, 2-(((S)-1-(5-fluoropyridin-3-yl)ethyl)amino)-N—((S)-2-hydroxypropyl)-6-(trifluoromethyl)thieno[3,2-d]pyrimidine-4-carboxamide]
23 | 399.70 | < 10 nM | > 500 nM | – | – | 50 to 100 nM | 50 to 100 nM | C[C@H](Nc1nc(C(=O)NC[C@@H](C)O)c2sc(C(F)(F)F)cc2n1)c1cncc(F)c1 [Example Z393, 2-(((S)-1-(5-Fluoropyridin-3-yl)ethyl)amino)-N—((R)-2-hydroxypropyl)-6-(trifluoromethyl)thieno[3,2-d]pyrimidine-4-carboxamide]
24 | 2.54 | 10 to 50 nM | 50 to 100 nM | – | – | > 500 nM | > 500 nM | ((R)-3-Methoxypyrrolidin-1-yl)(2-(((S)-1-(pyridin-2-yl)ethyl)amino)thieno[3,2-d]pyrimidin-4-yl)methanone [Example Z247]
